The values below come from publication PMC4534190, “Characterization of the MUC1-C Cytoplasmic Domain as a Cancer Target” (PLoS ONE, 2015).

Non-standard residues stand in square brackets, D forms with d. No end group written: not given here. *: point of attachment. FITC = O=C1OC2(c3ccc(O)cc3Oc3cc(O)ccc32)c2ccc(NC(=S)*)cc21

In assay [1] the test system is human GFP-MUC1-CD and FLAG-MUC1-CD. Nature of the assay: MUC1-CD homodimerization in 293T cells, human, coimmunoprecipitation. Format: cell-based. The note with it: 5 μM each day for 3 days, anti-FLAG precipitation. On the procedure:
(§1) Human ZR-75-1 breast cancer (ATTC) and H1975 lung cancer (ATTC) cell lines were grown in RPMI 1640 supplemented with 10% heat-inactivated fetal bovine serum (HI-FBS), 100 units/ml penicillin, and 100 μg/ml streptomycin. 293T cells were grown in DMEM with 10% HI-FBS, antibiotics, and 2 mmol/L L-glutamine. Cells were treated with FITC conjugated-GO-202 (FITC-GO-202), FITC-GO-203 or unconjugated GO-203 synthesized by the MIT Biopolymer Laboratory (Cambridge, MA) and AnaSpec, Inc (San Jose, CA). The p3XFLAG-CMV-10 (Sigma, St. Louis, MO), pEGFP-C1 and pDsRed-Monomer-N1 (Clontech, Mountain View, CA) vectors were used for transfection of rat and dog MUC1-CD and full length human MUC1 in 293T cells in the presence of Lipofectamine 2000 (Life Technologies, Grand Island, NY).
(§2) Cell lysates were prepared as described. Soluble proteins were immunoprecipitated with anti-FLAG (Sigma, St. Louis, MO), anti-MUC1-C (Thermo Fisher Scientific, Waltham, MA) or a control IgG. The precipitates and lysates not subjected to immunoprecipitation were immunoblotted with anti-MUC1-C, anti-GFP (Abcam, Cambridge, MA), anti-FLAG and anti-FITC (Life Technologies, Grand Island, NY). Reactivity was detected with horseradish peroxidase-conjugated secondary antibodies and chemiluminescence.

Assay [2] concerns human His-MUC1-CD. Nature of the assay: In vitro dimerization of human His-MUC1-CD. Format: biochemical. As to conditions: CP-2 or GO-203 150 μM; 1 h at room temperature; non-reducing gel, anti-MUC1-C immunoblot. The procedure:
(§3) Vectors expressing GST-MUC1-CD, GST-MUC1-CD(AQA) and His-MUC1-CD, GFP-MUC1-CD and FLAG-MUC1-CD have been described. His-tagged MUC1-CD (rat and dog) were cloned in pET28a vector (Clontech, Mountain View, CA) and expressed in E. coli BL21(DE3).
(§4) Purified His-MUC1-CD was incubated in PBS or increasing amounts of GO-203 for 1 h at room temperature as described. Proteins were then separated in non-reducing polyacrylamide gels and analyzed by immunoblotting.

Assay [3] has as its system MUC1-C-expressing carcinoma and leukemia cells. Also noted: method as in PMID 21421804, PMID 23867470. The note with it: ref [19],[32]; cited from earlier work.
Assay [4] concerns dog GFP-MUC1-CD and FLAG-MUC1-CD. Nature of the assay: MUC1-CD homodimerization in 293T cells, dog, coimmunoprecipitation. In kind it is cell-based. As to conditions: 5 μM each day for 3 days, anti-FLAG precipitation. The procedure: as §1, §2
Assay [5] relates to rat GFP-MUC1-CD and FLAG-MUC1-CD. The assay can be described thus: MUC1-CD homodimerization in 293T cells, rat, coimmunoprecipitation. In kind it is cell-based. The note with it: 5 μM each day for 3 days, anti-FLAG precipitation. On the procedure:
as §1, §2

For assay [6], the target named is His-MUC1-CD (dog) (dog). Nature of the assay: non-reducing PAGE with immunoblot; purified His-MUC1-CD in PBS (pH 7.4) or with GO-203 (50, 150, 450 μM) for 1 h at room temperature; immunoblot with anti-MUC1-C. For orientation: Immunoblotting shows a protein as a band on a membrane.
For assay [7], the target named is His-MUC1-CD (human) (human). The assay is described as above.
Assay [8] addresses His-MUC1-CD (rat) (rat). Described as above.
Assay [9] deals with T1, GST-MUC1-CD (Homo sapiens, UniProt P15941).
T1 construct: made in house
T1 sequence (P15941 1182-1255 limits assumed): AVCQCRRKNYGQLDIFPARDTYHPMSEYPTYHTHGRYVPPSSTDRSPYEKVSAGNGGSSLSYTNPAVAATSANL
Nature of the assay: MS-bridge analysis of disulfide linkage, MALDI-TOF-MS. Format: binding. The note with it: incubation with purified GST-MUC1-CD, tryptic digest, single disulfide bridge at the CQC motif. The procedure: (§5) Binding experiments with MUC1-CD and GO-203 were performed as described. Complexes were eluted from the glutathione beads, dialyzed and concentrated using amicon ultra centrifugal filters (Millipore, Billerica, MA). The complexes were then subjected to non-reducing electrophoresis and stained with Coomassie Blue. Protein bands were excised and analyzed by MALDI-TOF-MS as described. Briefly, gels were cut into small, uniform pieces; the gel pieces were dehydrated with acetonitrile and then rehydrated in 100 mM ammonium bicarbonate followed by 2 washing and drying cycles with ammonium bicarbonate and acetonitrile, respectively. After complete dehydration, gel pieces were suspended in 12.5 ng/μl trypsin in 50 mM ammonium bicarbonate (50 μl). In-gel digestion was carried out at 37°C for 10–12 h and the samples were acidified with 50 μl of 0.5% TFA. Thirty μl of this mixture was desalted by C-18 containing Zip-Tip (Millipore, Billerica, MA). Trypsin-digested peptides were analyzed by MALDI-TOF-MS (ABI-4800). MALDI-TOF-MS analyses were performed using a Reflector method that was optimized for acquisition for the mass range of 700–3500 amu. Data was collected and analyzed using the data Explorer software package (AB-Sciex, Framingham, MA) and MASCOT (ver.2.0.04, Matrix Science, Boston, MA). MS-bridge analysis was done using Protein Prospector (ver.4.27.2 basic and ver.5.0, UCSF). […]

The test system of assay [10] is dog His-MUC1-CD. The assay can be described thus: In vitro dimerization of dog His-MUC1-CD. In kind it is biochemical. The note with it: GO-203 50, 150 and 450 μM; 1 h at room temperature; non-reducing gel, anti-MUC1-C immunoblot. The procedure: as §3, §4
Assay [11] deals with GST. Nature of the assay: MS-bridge analysis of disulfide linkage, MALDI-TOF-MS, GST control. In kind it is binding. As to conditions: tryptic digest of GST+GO-203, dimer peak not observed. On the procedure: as §5
For assay [12], the system named is rat His-MUC1-CD. Nature of the assay: In vitro dimerization of rat His-MUC1-CD. As to conditions: GO-203 50, 150 and 450 μM; 1 h at room temperature; pH 7.4; non-reducing gel, anti-MUC1-C immunoblot. Format: biochemical. On the procedure: as §3, §4
For assay [13], the target named is GST-MUC1-CD (human). The assay can be described thus: saturation binding of FITC-peptide to protein on coated plates (fluorescence); GST-MUC1-CD held on glutathione-coated 96-well plates; FITC-peptide 0.19 μM to 25 μM, 1 h at 37°C; nonspecific binding from GST alone; apparent Kd by non-linear regression.
Assay [14] addresses His-MUC1-CD (human) (human). The assay can be described thus: saturation binding of FITC-peptide to protein on coated plates (fluorescence); His-MUC1-CD held on nickel-coated 96-well plates; FITC-GO-203 0.19 μM to 25 μM, 1 h at 37°C; apparent Kd by non-linear regression.

Take “AQARRKN [CP-2, control peptide, which includes AQARRKN, reference compound]”: in [1], the “inhibition of human MUC1-CD homodimerization in cells” value is given as “no effect”. The “inhibition of human His-MUC1-CD homodimerization” value in assay [2] was “no effect”. In addition, the “inhibition of survival of MUC1-C-expressing carcinoma and leukemia cells” value in assay [3] is “not CP-2, inhibits the survival of MUC1-C-expressing carcinoma and leukemia cells”. For the same molecule, the “inhibition of dog MUC1-CD homodimerization in cells” value in assay [4] is “no effect”. Besides, the “inhibition of rat FLAG-MUC1-CD/GFP-MUC1-CD complexes in cells” value in [5] is listed as “no apparent effect”.

For the molecule His-MUC1-CD (dog) (domain or fragment), the stoichiometry N (usually a count of units in the complex or per binding partner) in [6] was determined as 2.

In [7], “His-MUC1-CD (human) (domain or fragment)” yielded a stoichiometry N of 2.

In assay [8], His-MUC1-CD (rat) (domain or fragment) yielded a stoichiometry N of 2.

As to “[R]9-CQCRRKN [GO-203, peptide in which the poly-Arg cell-penetrating domain is linked to CQCRRKN (D-amino acids)]”, in [1], the “inhibition of human MUC1-CD homodimerization in cells” value was “inhibition of MUC1-CD homodimerization”. For the same molecule, the “formation of disulfide bridges with MUC1-CD” value in assay [9] is reported as “forms disulfide bridges specifically with MUC1-CD”. For the same molecule, in assay [2], the “inhibition of human His-MUC1-CD homodimerization” value was “effectively inhibited”. For the same molecule, the “inhibition of dog His-MUC1-CD homodimerization” value in assay [10] is “effectively inhibited”. In assay [3], the “inhibition of survival of MUC1-C-expressing carcinoma and leukemia cells” value is “inhibits the survival of MUC1-C-expressing carcinoma and leukemia cells”. The “formation of disulfide bridges with GST” value in assay [11] is “not with GST”. Also, the “inhibition of dog MUC1-CD homodimerization in cells” value in [4] is listed as “inhibition of MUC1-CD homodimerization”. In [12], the “inhibition of rat His-MUC1-CD homodimerization” value was “decreased homodimerization”. The “inhibition of rat FLAG-MUC1-CD/GFP-MUC1-CD complexes in cells” value in assay [5] was “inhibition of the FLAG-MUC1-CD/GFP-MUC1-CD complexes”.

Turning to {FITC}-RRRRRRRRRCQCRRKN (cysteine pairing not given here) [FITC-GO-202], the Kd in [13] came to 880 nM.

{FITC}-[dR][dR][dR][dR][dR][dR][dR][dR][dR][dC][dQ][dC][dR][dR][dK][dN] (cysteine pairing not given here) [FITC-GO-203]: the Kd in assay [14] came to 860 nM; in assay [13] it was 630 nM.
